Source: PMC7692923, “Co-Ingestion of Black Carrot and Strawberry. Effects on Anthocyanin Stability, Bioaccessibility and Uptake” (Foods, 2020)

Legend:
Assay type in all cases: in vitro ADME
[1] = Gastric stability of anthocyanins in extracts, standardized in vitro digestion (simulated gastric fluid, pepsin, pH 3.0); settings: for Gastric stability: % of undigested
Method: (§1) A standardized in vitro digestion procedure was applied to each sample [20]. For the gastric phase, 7.5 mL of a simulated gastric fluid (in mM: KCl 6.9, KH2PO4 0.9, NaHCO3 25, NaCl 47.2, MgCl2(H2O) 0.1, (NH4)2CO3 0.5, pH 3.0), 5 µL of CaCl2 (0.3 M) and 1.6 mL of porcine pepsin solution (25,000 U/mL) were added and the pH of was adjusted to 3.0 using HCl (1 M). Demineralized water was added to the gastric chyme to complete a volume of 20 mL. Nitrogen was flushed into the headspace of the tubes before incubation at 37 °C during 2 h in the dark, while end-over-end rotation (40 rpm). For the intestinal phase simulation, the gastric chyme was mixed with 11 mL of simulated intestinal fluid (in mM: KCl 6.8, KH2PO4 0.8, NaHCO3 85, NaCl 38.4, MgCl2(H2O) 0.33, pH 7.0), 40 µL of CaCl2, 5 mL of pancreatin solution (800 U/mL based on trypsin activity) and 2.5 mL of bile solution (160 mM). NaOH (1 M) was used to adjust the pH to 7 and water to complete the volume until 40 mL. Prior to incubation in the dark, at 37 °C, 2 h, end-over-end rotation, the headspace of the tubes was flushed with nitrogen.
(§2) Aliquots from gastric and intestinal digests were sampled along black carrot and strawberry extracts digestion, stabilized by acidification with formic acid and stored at −20 °C until further analysis. Stability (%) was calculated as indicated by Equations (1) and (2). (1) Gastric stability (%)=(anthocyanin (mg·100 mL^−1) after gastric digestion)/(anthocyanin (mg·100 mL^−1) before digestion)×100 (2) Intestinal stability (%)=(anthocyanin (mg·100 mL^−1) after intestinal digestion)/(anthocyanin (mg·100 mL^−1) before digestion)×100

[2] = Intestinal stability of anthocyanins in extracts, standardized in vitro digestion (simulated intestinal fluid, pancreatin, bile, pH 7); settings: for Intestinal stability: % of undigested; for Post-Intestinal concentration: mean ± SD n = 3
Method: as §1, §2

[3] = In vitro bioaccessibility after digestion of matrix-containing powder; settings: for Post-digestion concentration (bioaccessible fraction): mean ± SD n = 3
Method: as §1
After digestion of the powdered samples, an ultracentrifugation (Beckman L7 ultracentrifuge, Palo, Alto, CA, USA) at 165,000× g, 4 °C, 65 min, was performed to separate soluble and non-soluble fractions. The supernatant, containing the bioaccessible anthocyanins, was isolated. For the determination of anthocyanins, the digest was acidified with formic acid (1%) to stabilize the compounds, prior to the quantification by high performance liquid chromatography (HPLC). Results are shown as the ratio of the bioaccessible compound concentration to the initial compound concentration in the sample, as indicated in Equation (3). (3) Bioaccessibility (%)=(anthocyanin (mg.100 g^−1) after digestion)/(anthocyanin (mg.100 g^−1) before digestion)×100

[4] = co-digestion of black carrot and strawberry extracts
[5] = co-digestion of black carrot and strawberry extracts, mean ± SD n = 3
[6] = single digestion, liquid extract, 2 h 37 °C pH 3.0, mean ± SD n = 3
[7] = single digestion, liquid extract
[8] = single digestion, liquid extract, pH 7, 2 h 37 °C
[9] = co-digestion of black carrot and strawberry powder
[10] = single digestion, matrix-containing powder

Row | Compound | Gastric stability [1, 4] [%] | Post-Gastric concentration [1, 5] | Post-Gastric concentration [1, 6] | Gastric stability [1, 7] [%] | Intestinal stability [2, 4] [%] | Post-Intestinal concentration [2, 4] | Intestinal stability [2, 7] [%] | Post-Intestinal concentration [2, 8] | Bioaccessibility [3, 9] [%] | Post-digestion concentration (bioaccessible fraction) [3, 9] | Bioaccessibility [3, 10] [%] | Post-digestion concentration (bioaccessible fraction) [3, 10]
1 | OC[C@H]1O[C@@H](Oc2cc3c(O)cc(O)cc3[o+]c2-c2ccc(O)c(O)c2)[C@H](O[C@@H]2OC[C@@H](O)[C@H](O)[C@H]2O)[C@@H](O)[C@H]1O [Cyanidin-3-xylosyl-galactoside] | 83 | 0.98 ± 0.02 mg/100 mL of extract | 0.95 ± 0.00 mg/100 mL of extract | 81 | 92 | 1.09 ± 0.01 mg/100 mL of extract | 79 | 0.94 ± 0.01 mg/100 mL of extract | 84 | 113.8 ± 0.2 mg/100 g of sample (dry weight) | 33 | 44.1 ± 4.4 mg/100 g of sample (dry weight)
2 | O=C(/C=C/c1ccc(O)cc1)OC[C@H]1O[C@@H](OC[C@H]2O[C@@H](Oc3cc4c(O)cc(O)cc4[o+]c3-c3ccc(O)c(O)c3)[C@H](O[C@@H]3OC[C@@H](O)[C@H](O)[C@H]3O)[C@@H](O)[C@H]2O)[C@H](O)[C@@H](O)[C@@H]1O [Cyanidin-3-xylosyl-coumaroyl-glucosyl-galactoside] | 66 | 1.16 ± 0.02 mg/100 mL of extract | 1.14 ± 0.01 mg/100 mL of extract | 65 | 42 | 0.75 ± 0.04 mg/100 mL of extract | 48 | 0.85 ± 0.07 mg/100 mL of extract | 52 | 105.2 ± 0.9 mg/100 g of sample (dry weight) | 28 | 55.8 ± 5.2 mg/100 g of sample (dry weight)
3 | OC[C@H]1O[C@@H](OC[C@H]2O[C@@H](Oc3cc4c(O)cc(O)cc4[o+]c3-c3ccc(O)c(O)c3)[C@H](O[C@@H]3OC[C@@H](O)[C@H](O)[C@H]3O)[C@@H](O)[C@H]2O)[C@H](O)[C@@H](O)[C@@H]1O [Cyanidin-3-xylosyl-glucosyl-galactoside] | 56 | 0.24 ± 0.02 mg/100 mL of extract | 0.25 ± 0.01 mg/100 mL of extract | 59 | 99 | 0.42 ± 0.00 mg/100 mL of extract | 86 | 0.36 ± 0.00 mg/100 mL of extract | 105 | 50.5 ± 9.2 mg/100 g of sample (dry weight) | 62 | 29.7 ± 3.7 mg/100 g of sample (dry weight)
4 | O=C(O)CC(=O)OC[C@H]1O[C@@H](Oc2cc3c(O)cc(O)cc3[o+]c2-c2ccc(O)cc2)[C@H](O)[C@@H](O)[C@@H]1O [Pelargonidin-3-malonyl-glucoside] | 92 | 3.57 ± 0.07 mg/100 mL of extract | 3.37 ± 0.01 mg/100 mL of extract | 87 | 49 | 1.91 ± 0.02 mg/100 mL of extract | 46 | 1.77 ± 0.01 mg/100 mL of extract | 36 | 81.3 ± 6.6 mg/100 g of sample (dry weight) | 34 | 76.2 ± 1.8 mg/100 g of sample (dry weight)
5 | OC[C@H]1O[C@@H](Oc2cc3c(O)cc(O)cc3[o+]c2-c2ccc(O)cc2)[C@H](O)[C@@H](O)[C@@H]1O [Pelargonidin-3-glucoside] | 76 | 12.63 ± 0.46 mg/100 mL of extract | 11.13 ± 0.09 mg/100 mL of extract | 90 | 35 | 5.78 ± 0.13 mg/100 mL of extract | 49 | 6.01 ± 0.02 mg/100 mL of extract | 28 | 272.5 ± 19.7 mg/100 g of sample (dry weight) | 36 | 256.6 ± 8.3 mg/100 g of sample (dry weight)
6 | COc1cc(/C=C/C(=O)OC[C@H]2O[C@@H](OC[C@H]3O[C@@H](Oc4cc5c(O)cc(O)cc5[o+]c4-c4ccc(O)c(O)c4)[C@H](O[C@@H]4OC[C@@H](O)[C@H](O)[C@H]4O)[C@@H](O)[C@H]3O)[C@H](O)[C@@H](O)[C@@H]2O)ccc1O [Cyanidin-3-xylosyl-feruloyl-glucosyl-galactoside] | 86 | 8.28 ± 0.03 mg/100 mL of extract | 8.23 ± 0.04 mg/100 mL of extract | 86 | 60 | 5.81 ± 0.03 mg/100 mL of extract | 58 | 5.54 ± 0.05 mg/100 mL of extract | 48 | 528.3 ± 15.0 mg/100 g of sample (dry weight) | 34 | 378.4 ± 26.1 mg/100 g of sample (dry weight)
